Tests used:
IL-6 = experiment: Quantitative RT-PCR of cytokine mRNA in collagen-arthritis rats, IL-6; settings: rat, in vivo
Procedure: (§1) Iodoform and bromoform were compared with methylene chloride as alternative carbon monoxide generating compounds, using the rat collagen arthritis model described in Example 6 above. Briefly, arthritis was induced in a Lovain strain of rats by immunizing the animals with Collagen Type II in Incomplete Freund's Adjuvant. Digitized radiographs were obtained at the completion of the study on day 28. Pharmacokinetics were also determined and the synovial tissue from the inflamed joints of the treated animals was harvested on Day 16 or Day 28 post-immunization. Disease systems were generally evident by Day 10.
(§2) Carboxyhemoglobin levels peaked within a few hours of administration but normalized within 24 hours without cumulative pharmacokinetic consequences. Messenger RNA (mRNA) from the treated animals was purified and specific mRNA levels for cytokines TNF, IL-6, and IFN-γ were quantitated by Quantitative RT-PCR.

[1] = Blood carboxyhemoglobin after alkyl halide administration; format: in vivo; settings: 100 mg/kg
Procedure: The ability of the trihalomethanes iodoform and bromoform to act as carbon monoxide generating compounds was assayed in comparison with methylene chloride.

TNF = experiment: Quantitative RT-PCR of cytokine mRNA in collagen-arthritis rats, TNF; format: in vivo, rat; settings: Day 28
Procedure: as §1, §2

[2] = test system: Louvain rats immunized with collagen type II; experiment: Rat collagen-arthritis model; format: in vivo; design: arthritic score / Arthritis Score / X-Ray Score: scale not given here; settings: for structural damage by blinded radiographic scores: day 28; for efficacy in comparison with methylene chloride (RB2000): rat collagen arthritis model, arthritic score; for arthritic scores in comparison to methylene chloride treated rats: rat, in vivo
Procedure: To assess the therapeutic potential of methylene chloride as a carbon-monoxide generating compound in this disease model, female Louvain rats weighing between 120 and 150 g were injected intradermally with 0.5 mg native chicken collagen type II solubilized in 0.1M acetic acid and emulsified in incomplete Freund's adjuvant. At the onset of disease (around day 10) animals were divided into three groups. One group was treated daily with vehicle, the second and third groups with 100 mg/kg/day and 500 mg/kg/day methylene chloride (p.o.). Severity of disease was evaluated daily using a quantification method based on standardized levels of swelling and periarticular erythema. Animals were sacrificed on day 28. […] Compared to control animals these differences were statistically significant (p<0.02).
as §1

Lewis rats = experiment: Experimental autoimmune encephalomyelitis (EAE) model of multiple sclerosis; format: in vivo, rat; settings: daily oral administration from day 8 post-inoculation; scale 0 to 3
Procedure: Multiple sclerosis is characterized by an autoimmune and inflammatory response directed against myelin sheath and oligodendrocytes, resulting in demyelination in the central nervous system. A well-established animal model of multiple sclerosis, experimental autoimmune encephalomyelitis (EAE), was used to examine the effect of the subject alkyl halides on this autoimmune and inflammatory condition of the central nervous system. Lewis rats were given intradermal footpad injections of 50 μg guinea pig myelin basic protein (MBP) and complete Freund's adjuvant (CFA) to induce experimental allergic encephalomyelitis (EAE). Daily oral administration of vehicle, methylene chloride or iodoform was started on day 8 post-inoculation and continued to the end of the study. Animals were monitored and scored on a 0 (normal) to 3 (complete hindlimb paralysis) scale. Daily mean±SD clinical scores are shown.

IFN-γ = experiment: Quantitative RT-PCR of cytokine mRNA in collagen-arthritis rats, IFN-γ; settings: rat, in vivo
Procedure: as §1, §2

rat liver [3] = test system: rat liver; design: species or system Sprague Dawley (SD) rats; settings: 2 h reperfusion, inhibitor given together with CO 300 ppm; for bile production / portal vein resistance: compared with CO alone
Source text: Animals. Male Sprague Dawley (SD) rats weighing between 300-350 g (Harlan Sprague Dawley, Indianapolis, Ind.) were used. Animals were fed standard rodent chow and water and libitum and cared according to guidelines approved by the American Association of Laboratory Animal Care.
Isolated perfusion liver apparatus. An isolated perfusion liver apparatus was used, as described in Amersi et al., supra, and Maulik et al., Circulation 94:398-406 (1996). In brief, syngeneic rat blood, obtained for each experiment from four donor animals, was diluted to a hematocrit of 15% with Krebs Ringer Bicarbonate Buffer (mM: NaCl 118, KH2POF 1, MgSO4 0.9, CaCl2 2.5, dextrose 11.1, and NaHCO2 25), and maintained at pH of 7.4. The perfusate was pumped from a heated reservoir that warmed the perfusate to 37° C. through silastic tubing oxygenator connected to a flow meter that measured portal vein blood flow (Cole Palmer Instruments, Chicago, Ill.). Portal pressure was kept constant via a pressure monometer connected to a T fitting in the portal vein canula. […] During the experiment, pH, temperature and oxygenation were kept constant.
Ex vivo cold ischemia model. SD rats underwent isoflourane anesthesia and systemic heparinization. […] The livers were then stored for 24 h at 4° C. in UW solution, followed by ex-vivo reperfusion for 1-2 h on an isolated perfusion liver apparatus. Portal vein blood flow, pressure, and bile production were recorded every 30 min. Blood samples were collected at 30 min intervals and serum glutamic oxaloacetic transaminase (sGOT) levels were measured using an autoanalyzer from ANTECH Diagnostics (Irvine, Calif.). At the conclusion of experiment, a portion of the liver was snap frozen for mRNA extraction/Western blot analyses; the remaining samples were fixed in formalin for H&E staining.
The role of CO—HO-1 pathway in hepatic I/R injury was studied in five major treatment groups (n=4.8 rats/group). In Group 1, the extent of I/R injury was contrasted between livers perfused ex-vivo with blood saturated with CO (300 parts per million [ppm]; 0.03% balanced air) vs. air alone (21% O2). As NO may enhance HO-1 expression (Brouard et al., supra), we then investigated a link between the two gaseous molecules in Group 2 livers, which were perfused with CO supplemented with 25 mM NG-nitro-L-arginine methyl ester hydrochloride (L-NAME; Sigma Chemicals, St. Louis, Mo.), an inducible NO inhibitor. […] To analyze as to whether exogenous CO can substitute for HO-1 in preventing I/R insult, Group 4 rats were treated 24 h prior to liver procurement with ZnPP)(1.5 mg/kg/i.p; Porphyrin Products, Logan Utah), an HO-1 inhibitor, followed by ex vivo perfusion with CO. […] Brouard et al., supra. Therefore, Group 5 rats were pre-treated 60 min before harvest with p38 MAPK inhibitor, SB203580, a pyridinyl imidazol (25 mg/kg orally; Sigma). In addition, prior to reperfursion with CO, SB203580 (20 μM) was added to the perfusate.

HO-1 [4] = experiment: HO-1 enzymatic activity in liver homogenates; format: biochemical, rat; settings: liver after perfusion; ZnPP = 1.5 mg/kg i.p. 24 h before harvest then CO perfusion; CO = CO only
Procedure: HO-1 Enzymatic Activity. Livers were homogenized on ice in a Tris-HCl lysis buffer (pH 7.4) containing 0.5% Triton X-100 and protease inhibitors. Samples were frozen in small aliquots until use. Homogenates (100 μl) were mixed with 0.8 mM NADPH, 0.8 mM glucose-6-phosphate 1.0 unit G-60P dehydrogenase, 1 mM MgCl2 and […] purified rat liver biliverdin reductase at 4° C. The reaction was initiated by the addition of hemin (final concentration 0.25 mM). The reaction mixture was incubated at 37° C. in the dark for 15 min. At the end of incubation period, any insoluble material was removed by centrifugation and supernatants were analyzed for bilirubin concentration. An extinction coefficient of 40 mM^−1 cm^−1 at A 460-530 was used to calculate the amount of bilirubin formed. Controls included naive samples in the absence of the NADPH generating system and all the ingredients of the reaction mixture in the absence of graft homogenates. Biliverdin reductase was purified from rat liver, as described in Browne and Ultrich, Mol. Pharmacol. 32:497-504 (1987).

rat liver [5] = experiment: Histologic severity of I/R injury, Banff criteria; design: species or system Sprague Dawley (SD) rats; settings: CO plus inhibitor, 2 h perfusion; scale 1-4
Source text: Histology. Liver specimens were fixed in a 10% buffered formalin solution and embedded in paraffin. Sections were made at 4 μm and stained with H&E. The histologic severity of I/R injury was graded using International Banff Criteria (Int'l Banff Schema Conference Worksheet, The Third Int'l Banff Conference on Allograft Pathology, June 21-25 (1995)). Using these criteria, lobular disarray and ballooning changes are graded from 1-4, where no change is given a score of 1 and severe disarray or ballooning changes are given a score of 4.

HO-1 [6] = experiment: ELISA for HO-1 protein expression in liver; design: species or system rat; settings: ZnPP = pretreatment then CO perfusion; CO = CO only
Procedure: ELISA for HO-1 protein expression. Livers were homogenized on ice in a Tris-HCl lysis buffer (pH 7.4) containing 0.5% Triton X-100 and protease inhibitors. Flat-bottom microtiter 96-well plates (Nunc) were coated with 7 μg/ml anti-HO-1 mAb (OSA-111, Stressgen, Canada) in PBS for 18 h at room temperature. Unbound Ab was removed by washing (wash buffer: 0.05% Tween 20 in 50 mM phosphate buffer, pH 7.5) and remaining binding sites were blocked by incubation with a 5% BSA/PBS solution (1 h). Recombinant HO-1 (SPP-730) and tissue homogenate were diluted in assay diluent (0.5% BSA/0.05% Tween 20/PBS) and incubated in anti-HO-1 mAb coated wells for 1 h at room temperature. Subsequently, plates were washed three times with wash buffer and incubated with rabbit anti-HO-1 polyclonal antibody (SPA-895, Stressgen; diluted 1:1000 in assay diluent) for 30 min at room temperature. Bound rabbit IgG was detected with a donkey anti-rabbit (gG-HRP conjugate (711-035-152, Jackson Research Laboratories; diluted 1:8000 in assay diluent). Unbound secondary Ab was removed by washing and bound HRP was detected using 1 mg/ml OPD in substrate buffer (0.1% H2O2, 0.1 M citric acid, 0.2 M Na2HPO4, pH 5.0). The color reaction was stopped with 1 M HCl and the optical density at 490 nm was measured.

Q: For IC(I)I [iodoform], which “mRNA levels for IL-6 compared to methylene chloride treated rats” value (IL-6) is on record?
A: substantially lower

Q: What about the “COHb level in comparison with the same amount of methylene chloride” value [1] of the same molecule?
A: higher COHb level

Q: And the “mRNA levels for TNF compared to methylene chloride treated rats” value (TNF)?
A: higher

Q: And the “Arthritis Score” value ([2]; Day 28, dose 100 mg/kg)?
A: 3.62 ± 0.99

Q: What about the “X-Ray Score” value ([2]; Day 28, dose 100 mg/kg) of the same molecule?
A: 1.50 ± 0.80

Q: And the “Arthritis Score” value ([2]; Day 28, dose 175 mg/kg)?
A: 3.16 ± 0.99

Q: And the “X-Ray Score” value ([2]; Day 28, dose 175 mg/kg)?
A: 1.90 ± 0.64

Q: What about the “Arthritis Score” value ([2]; Day 28, dose 250 mg/kg) of the same molecule?
A: 1.85 ± 0.91

Q: What about the “X-Ray Score” value ([2]; Day 28, dose 250 mg/kg) of the same molecule?
A: 0.85 ± 0.45

Q: And the “structural damage by blinded radiographic scores” value [2]?
A: significantly inhibited structural damage

Q: And the “efficacy in comparison with methylene chloride (RB2000)” value [2]?
A: superior efficacy

Q: What about the “arthritic scores in comparison to methylene chloride treated rats” value [2] of the same molecule?
A: significantly lower

Q: And the “clinical score / clinical signs” value (Lewis rats)?
A: did not display any clinical signs

Q: What about the “mRNA levels for IFN-γ compared to methylene chloride treated rats” value (IFN-γ) of the same molecule?
A: substantially lower

Q: Which bile production (rat liver [3]) does the source give for O=C1C(Nc2ccccc2)=CC(=O)c2ncccc21 [LY-83583, 6-anilino-5,8-quinalinedone] here?
A: comparable

Q: And the portal vein resistance (rat liver [3])?
A: slightly increased

Q: What about the sGOT release (rat liver [3]) of the same molecule?
A: 186±21 IU/L

Q: Which results are given for COC(=O)[C@@H](N)CCCN=C(N)N[N+](=O)[O-].Cl [L-NAME, NG-nitro-L-arginine methyl ester hydrochloride]?
A: bile production (rat liver [3]): increase in bile production; portal vein resistance (rat liver [3]): decrease in portal vein resistance; sGOT release (rat liver [3]): 191±16 IU/L

Q: What does the source list for BrC(Br)Br [bromoform]?
A: mRNA levels for IL-6 compared to methylene chloride treated rats (IL-6): substantially lower; COHb level in comparison with the same amount of methylene chloride [1]: higher COHb level; mRNA levels for TNF compared to methylene chloride treated rats (TNF): higher; Arthritis Score ([2]; Day 28, dose 250 mg/kg): 5.5 ± 0.86; X-Ray Score ([2]; Day 28, dose 250 mg/kg): 2.75 ± 0.81; structural damage by blinded radiographic scores [2]: significantly inhibited structural damage; efficacy in comparison with methylene chloride (RB2000) [2]: superior efficacy; arthritic scores in comparison to methylene chloride treated rats [2]: significantly lower; mRNA levels for IFN-γ compared to methylene chloride treated rats (IFN-γ): substantially lower

Q: For C[S+]([O-])c1ccc(-c2nc(-c3ccncc3)c(-c3ccc(F)cc3)[nH]2)cc1 (centres unmarked) [SB203580], which bile production (rat liver [3]) is on record?
A: significantly less bile

Q: And the portal vein resistance (rat liver [3])?
A: significant increase in portal vein resistance

Q: What about the sGOT release (rat liver [3]) of the same molecule?
A: 352±21 IU/L

Q: With C=CC1=C(C)c2cc3[n-]c(cc4[n-]c(cc5nc(cc1n2)C(C)=C5C=C)c(C)c4CCC(=O)O)c(CCC(=O)O)c3C.[Zn+2] [ZnPP] as the molecule, how does the HO-1 enzyme activity (HO-1 [4]) read?
A: 0.95±0.06 nmol of bilirubin/mg/protein/min

Q: And the bile production (rat liver [3])?
A: increased bile production

Q: And the portal vein resistance (rat liver [3])?
A: decreased portal vein resistance

Q: What about the sGOT release (rat liver [3]) of the same molecule?
A: 202±11 IU/L

Q: And the “Banff score of I/R injury” value (rat liver [5])?
A: 1.5±0.0

Q: And the “HO-1 protein expression in liver samples (ELISA)” value (HO-1 [6])?
A: 0.85±0.62 ng of HO-1/mg lysate

Source: US20040143025A1, “Carbon monoxide generating compunds for treatment of vascular, inflammatory and immune disorders” (priority 2002, published 2004)
